From ChEMBL document CHEMBL4818984, “Kojic acid-natural product conjugates as mushroom tyrosinase inhibitors” (Eur J Med Chem, 2020)
Activity calls are given as the source filed them. The calls are words filed in the database; no cut-off is given here.

Columns and labels:
Tyrosinase [1] = biological target: T1, Tyrosinase (Agaricus bisporus, UniProt O42713); experiment: Inhibition of mushroom tyrosinase assessed as reduction in dopachrome formation using L-DOPA as substrate by ELISA
T1 sequence (O42713 whole entry): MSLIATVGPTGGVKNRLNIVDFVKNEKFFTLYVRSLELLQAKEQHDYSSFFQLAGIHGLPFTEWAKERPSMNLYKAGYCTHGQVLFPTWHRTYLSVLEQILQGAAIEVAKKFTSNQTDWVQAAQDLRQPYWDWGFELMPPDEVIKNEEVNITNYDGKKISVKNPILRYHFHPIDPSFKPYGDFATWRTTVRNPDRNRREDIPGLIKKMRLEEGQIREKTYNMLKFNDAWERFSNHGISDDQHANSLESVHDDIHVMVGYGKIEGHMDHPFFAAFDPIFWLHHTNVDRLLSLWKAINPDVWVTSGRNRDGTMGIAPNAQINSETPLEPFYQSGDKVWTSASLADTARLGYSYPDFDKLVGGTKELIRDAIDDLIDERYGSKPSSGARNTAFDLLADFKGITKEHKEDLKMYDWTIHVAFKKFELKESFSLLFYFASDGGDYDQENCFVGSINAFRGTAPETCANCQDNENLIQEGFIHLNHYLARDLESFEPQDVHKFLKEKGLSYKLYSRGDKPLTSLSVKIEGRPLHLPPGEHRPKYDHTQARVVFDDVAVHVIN

[2] = Antioxidant activity assessed as DPPH radical scavenging activity at 10 uM; type: functional
Tyrosinase [3] = biological target: T1, Tyrosinase; experiment: Inhibition of mushroom tyrosinase using L-tyrosine as substrate measured after 15 mins by microplate reader analysis
Tyrosinase [4] = biological target: T1, Tyrosinase; experiment: Competitive inhibition of mushroom tyrosinase using L-DOPA as substrate by Lineweaver-Burk double reciprocal plot analysis
[5] = biological target: T2, Tyrosinase (Agaricus bisporus) (UniProt O42713); experiment: Non-competitive inhibition of mushroom tyrosinase using L-DOPA as substrate by Lineweaver-Burk double reciprocal plot analysis
T2 sequence (whole entry): T1 sequence (O42713 whole entry)

[6] = biological target: T2, Tyrosinase (Agaricus bisporus); experiment: Potency index, ratio of kojic acid IC50 to compound IC50 for inhibition of mushroom tyrosinase using L-DOPA as substrate by ELISA
B16-F10 [7] = experiment: cells; settings: Mus musculus
Description: Cytotoxicity against mouse B16-F10 cells assessed as reduction in cell viability by MTT assay

HFF = experiment: cells; settings: Homo sapiens
Description: Cytotoxicity against human HFF cells assessed as reduction in cell viability by MTT assay

Tyrosinase [8] = biological target: T1, Tyrosinase; experiment: Inhibition of mushroom tyrosinase using L-tyrosine as substrate measured after 30 mins by microplate reader analysis
[9] = biological target: T2, Tyrosinase (Agaricus bisporus); experiment: Inhibition of mushroom tyrosinase using L-DOPA as substrate at 0.5 uM in presence of 0.005 to 1.2 mM Cu2+ by ELISA
B16-F10 [10] = experiment: Antimelanogenic activity against mouse B16-F10 cells assessed as reduction of melanin content at 5 uM measured after 24 hrs by microplate reader assay; type: functional, cell-based
Tyrosinase [11] = biological target: T1, Tyrosinase; experiment: Inhibition of mushroom tyrosinase using L-tyrosine as substrate by HPLC analysis
Tyrosinase [12] = biological target: T3, Tyrosinase (Homo sapiens, UniProt P14679); experiment: Inhibition of tyrosinase (unknown origin)
T3 sequence (P14679 whole entry): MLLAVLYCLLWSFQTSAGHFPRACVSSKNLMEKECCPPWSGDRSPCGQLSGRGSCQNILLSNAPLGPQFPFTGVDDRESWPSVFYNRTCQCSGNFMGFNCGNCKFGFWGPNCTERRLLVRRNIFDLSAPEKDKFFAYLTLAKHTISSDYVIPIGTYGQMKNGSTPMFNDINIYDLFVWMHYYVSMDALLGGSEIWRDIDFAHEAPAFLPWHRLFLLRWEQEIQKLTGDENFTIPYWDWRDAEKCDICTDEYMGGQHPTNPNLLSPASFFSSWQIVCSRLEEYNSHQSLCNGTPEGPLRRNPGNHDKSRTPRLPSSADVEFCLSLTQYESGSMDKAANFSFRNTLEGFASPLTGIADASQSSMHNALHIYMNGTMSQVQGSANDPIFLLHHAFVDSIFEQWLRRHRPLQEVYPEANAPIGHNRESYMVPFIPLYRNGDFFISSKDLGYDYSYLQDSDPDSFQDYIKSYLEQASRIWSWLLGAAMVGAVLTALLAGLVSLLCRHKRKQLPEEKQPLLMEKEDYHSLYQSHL

[13] = compound: COc1cc(C(C)=O)ccc1OCc1cn(Cc2cc(=O)c(O)co2)nn1; experiment: (§1) Mixed-type of inhibition of mushroom tyrosinase assessed as Vmax using L-DOPA as substrate at 0.025 uM measured at 475 nm by Lineweaver-Burk double reciprocal plot analysis (reference value: […] to […] deltaOD/min); settings: Agaricus bisporus
[14] = compound: Cc1ccc(C(C)C)cc1OCc1cn(Cc2cc(=O)c(O)co2)nn1; experiment: as §1; settings: Agaricus bisporus
[15] = compound: O=c1cc(OCc2cn(Cc3cc(=O)c(O)co3)nn2)c2ccccc2o1; experiment: as §1; settings: Agaricus bisporus
[16] = compound: COc1cc(C(C)=O)ccc1OCc1cn(Cc2cc(=O)c(O)co2)nn1; experiment: (§2) Mixed-type of inhibition of mushroom tyrosinase assessed as Vmax using L-DOPA as substrate at 0.05 uM measured at 475 nm by Lineweaver-Burk double reciprocal plot analysis (reference value: […] to […] deltaOD/min); settings: Agaricus bisporus
[17] = compound: Cc1ccc(C(C)C)cc1OCc1cn(Cc2cc(=O)c(O)co2)nn1; experiment: as §2; settings: Agaricus bisporus
[18] = compound: O=c1cc(OCc2cn(Cc3cc(=O)c(O)co3)nn2)c2ccccc2o1; experiment: as §2; settings: Agaricus bisporus
[19] = compound: COc1cc(C(C)=O)ccc1OCc1cn(Cc2cc(=O)c(O)co2)nn1; experiment: (§3) Mixed-type of inhibition of mushroom tyrosinase assessed as Vmax using L-DOPA as substrate at 0.1 uM measured at 475 nm by Lineweaver-Burk double reciprocal plot analysis (reference value: […] to […] deltaOD/min); settings: Agaricus bisporus
[20] = compound: Cc1ccc(C(C)C)cc1OCc1cn(Cc2cc(=O)c(O)co2)nn1; experiment: as §3; settings: Agaricus bisporus
[21] = compound: O=c1cc(OCc2cn(Cc3cc(=O)c(O)co3)nn2)c2ccccc2o1; experiment: as §3; settings: Agaricus bisporus
[22] = compound: COc1cc(C(C)=O)ccc1OCc1cn(Cc2cc(=O)c(O)co2)nn1; experiment: (§4) Mixed-type of inhibition of mushroom tyrosinase assessed as Km using L-DOPA as substrate at 0.025 uM by Lineweaver-Burk double reciprocal plot analysis (reference value: […] to […] mM); settings: Agaricus bisporus
[23] = compound: Cc1ccc(C(C)C)cc1OCc1cn(Cc2cc(=O)c(O)co2)nn1; experiment: as §4; settings: Agaricus bisporus
[24] = compound: O=c1cc(OCc2cn(Cc3cc(=O)c(O)co3)nn2)c2ccccc2o1; experiment: as §4; settings: Agaricus bisporus
[25] = compound: COc1cc(C(C)=O)ccc1OCc1cn(Cc2cc(=O)c(O)co2)nn1; experiment: (§5) Mixed-type of inhibition of mushroom tyrosinase assessed as Km using L-DOPA as substrate at 0.05 uM by Lineweaver-Burk double reciprocal plot analysis (reference value: […] to […] mM); settings: Agaricus bisporus
[26] = compound: Cc1ccc(C(C)C)cc1OCc1cn(Cc2cc(=O)c(O)co2)nn1; experiment: as §5; settings: Agaricus bisporus
[27] = compound: O=c1cc(OCc2cn(Cc3cc(=O)c(O)co3)nn2)c2ccccc2o1; experiment: as §5; settings: Agaricus bisporus
[28] = compound: COc1cc(C(C)=O)ccc1OCc1cn(Cc2cc(=O)c(O)co2)nn1; experiment: (§6) Mixed-type of inhibition of mushroom tyrosinase assessed as Km using L-DOPA as substrate at 0.1 uM by Lineweaver-Burk double reciprocal plot analysis (reference value: […] to […] mM); settings: Agaricus bisporus
[29] = compound: Cc1ccc(C(C)C)cc1OCc1cn(Cc2cc(=O)c(O)co2)nn1; experiment: as §6; settings: Agaricus bisporus
[30] = compound: O=c1cc(OCc2cn(Cc3cc(=O)c(O)co3)nn2)c2ccccc2o1; experiment: as §6; settings: Agaricus bisporus
[31] = compound: O=c1cc(OCc2cn(Cc3cc(=O)c(O)co3)nn2)c2ccccc2o1; experiment: Mixed-type of inhibition of mushroom tyrosinase assessed as Vmax using L-DOPA as substrate at 0.5 uM measured at 475 nm by Lineweaver-Burk double reciprocal plot analysis (reference value: […] deltaOD/min); settings: Agaricus bisporus

With COc1ccc(C=O)cc1OCc1cn(Cc2cc(=O)c(O)co2)nn1 the IC50 (Tyrosinase [1]) was 1.95 µM and the Activity [2] was “inactive”.

For O=C(O)c1ccc(OCc2cn(Cc3cc(=O)c(O)co3)nn2)cc1, the IC50 (Tyrosinase [1]) was 3.13 µM and the Activity [2] was “inactive”.

With C=CCc1ccc(OCc2cn(Cc3cc(=O)c(O)co3)nn2)c(OC)c1 the IC50 (Tyrosinase [1]) was 1.07 µM and the Activity [2] was “inactive”.

With C/C=C/c1ccc(OCc2cn(Cc3cc(=O)c(O)co3)nn2)c(OC)c1 the IC50 (Tyrosinase [1]) was 0.52 µM and the Activity [2] was “inactive”.

With COc1cc(C=O)cc(OC)c1OCc1cn(Cc2cc(=O)c(O)co2)nn1 the IC50 (Tyrosinase [1]) was 3.75 µM and the Activity [2] was “inactive”.

With O=c1ccc2ccc(OCc3cn(Cc4cc(=O)c(O)co4)nn3)cc2o1 the IC50 (Tyrosinase [1]) was 0.23 µM and the Activity [2] was “inactive”.

For Cc1ccc(C(C)C)c(OCc2cn(Cc3cc(=O)c(O)co3)nn2)c1, the IC50 (Tyrosinase [1]) was 0.69 µM and the Activity [2] was “inactive”.

In the case of O=Cc1ccc(OCc2cn(Cc3cc(=O)c(O)co3)nn2)cc1, the IC50 (Tyrosinase [1]) is reported as 1.05 µM and the Activity [2] is reported as “inactive”.

COc1cc(C=O)ccc1O [VANILLIN] showed an IC50 (Tyrosinase [3]) of 4100 µM.

With CC(=O)c1ccc(OCc2cn(Cc3cc(=O)c(O)co3)nn2)cc1 the IC50 (Tyrosinase [1]) was 1.21 µM and the Activity [2] was “inactive”.

With COc1cc(C=O)ccc1OCc1cn(Cc2cc(=O)c(O)co2)nn1 the IC50 (Tyrosinase [1]) was 1.99 µM and the Activity [2] was “inactive”.

For COc1cc(C(C)=O)ccc1OCc1cn(Cc2cc(=O)c(O)co2)nn1, the IC50 (Tyrosinase [1]) was 0.03 µM, the Ki (Tyrosinase [4]) was 0.07 µM and the Kis [5] was 0.19 µM. The Activity [2] was “inactive”, the Ratio IC50 [6] was 133 and the IC50 (B16-F10 [7]) was 416 µM. For the same molecule, the IC50 (HFF) was 213 µM.

With O=c1cc(Cn2cc(COc3ccc4c(c3)OCO4)nn2)occ1O the IC50 (Tyrosinase [1]) was 0.06 µM, the Activity [2] was “inactive” and the Ratio IC50 [6] was 133.

In the case of Oc1ccc2c(c1)OCO2, the IC50 (Tyrosinase [8]) is reported as 6.7 µM.

O=c1cc(OCc2cn(Cc3cc(=O)c(O)co3)nn2)c2ccccc2o1 gave an IC50 (Tyrosinase [1]) of 0.02 µM, a Ki (Tyrosinase [4]) of 0.04 µM and a Kis [5] of 0.12 µM. The inhibition [9] was “inactive”, the Activity [2] was “inactive” and the Activity (B16-F10 [10]) was “Active”. For the same molecule, the Ratio IC50 [6] was greater than 460, the IC50 (B16-F10 [7]) was 143 µM and the IC50 (HFF) was 194 µM.

With Cc1ccc(C(C)C)cc1OCc1cn(Cc2cc(=O)c(O)co2)nn1 the IC50 (Tyrosinase [1]) was 0.07 µM, the Ki (Tyrosinase [4]) was 0.09 µM and the Kis [5] was 0.21 µM. For the same molecule, the Activity [2] was “inactive”, the Activity (B16-F10 [10]) was “Active” and the Ratio IC50 [6] was 133. It also gave an IC50 (B16-F10 [7]) of 408 µM and an IC50 (HFF) of 193 µM.

COc1ccc(C=O)cc1O [ISOVANILLIN] gave an IC50 (Tyrosinase [11]) greater than 500 µM.

Molecule C/C=C/c1ccc(O)c(OC)c1 has an IC50 (Tyrosinase [12]) of 33.3 µM.

In the case of COC(=O)c1ccc(OCc2cn(Cc3cc(=O)c(O)co3)nn2)cc1, the IC50 (Tyrosinase [1]) is reported as 0.46 µM and the Activity [2] is reported as “inactive”.

For C=CCc1ccc(O)c(OC)c1 [EUGENOL], the IC50 (Tyrosinase [3]) was 923 µM.

B1: Tyrosinase (Agaricus bisporus), O42713 (protein)
chain: T1 sequence (O42713 whole entry)
B1 gave a Vmax [13] of 0.232 deltaOD/min, a Vmax [14] of 0.241 deltaOD/min and a Vmax [15] of 0.21 deltaOD/min. The Vmax [16] was 0.208 deltaOD/min, the Vmax [17] was 0.219 deltaOD/min and the Vmax [18] was 0.176 deltaOD/min. The Vmax [19] was 0.183 deltaOD/min, the Vmax [20] was 0.192 deltaOD/min and the Vmax [21] was 0.122 deltaOD/min. It also gave a Km [22] of 1580 µM, a Km [23] of 1520 µM and a Km [24] of 1710 µM. It also gave a Km [25] of 1920 µM, a Km [26] of 1830 µM and a Km [27] of 2020 µM. For the same molecule, the Km [28] was 2110 µM, the Km [29] was 2020 µM and the Km [30] was 2250 µM. It also gave a Vmax [31] of 0.021 deltaOD/min.
